Laboratory results: patent US20220024945A1, “THERAPEUTIC COMPOUNDS AND COMPOSITIONS, AND METHODS OF USE THEREOF” (Genentech, Inc., priority 2017, published 2022)

What was measured:
[1] = system: JAK1-dependent STAT6 phosphorylation downstream of IL-13 stimulation, BEAS-2B cells; test: JAK1 pathway assay in cell lines: P-STAT6 in BEAS-2B cells + IL13; assay type: cell-based; conditions: Homo sapiens, BEAS-2B, 1 h, BEAS-2B human bronchial epithelial cells, 1 hr compound preincubation, read-out: P-STAT6 BEAS2B + IL13 IC50
Experimental: JAK1 Pathway Assay in Cell Lines was Carried Out as Follows:
Inhibitor potency (EC50) was determined in cell-based assays designed to measure JAK1 dependent STAT phosphorylation. As noted above, inhibition of IL-4, IL-13, and IL-9 signaling by blocking the Jak/Stat signaling pathway can alleviate asthmatic symptoms in pre-clinical lung inflammation models (Mathew et al., 2001, J Exp Med 193(9): 1087-1096; Kudlacz et. al., 2008, Eur J. Pharmacol 582(1-3): 154-161).
In one assay approach, TF-1 human erythroleukemia cells obtained from the American Type Culture Collection (ATCC; Manassas, Va.) were used to measure JAK1-dependent STAT6 phosphorylation downstream of IL-13 stimulation. Prior to use in the assays, TF-1 cells were starved of GM-CSF overnight in OptiMEM medium (Life Technologies, Grand Island, N.Y.) supplemented with 0.5% charcoal/dextran stripped fetal bovine serum (FBS), 0.1 mM non-essential amino acids (NEAA), and 1 mM sodium pyruvate. The assays were run in 384-well plates in serum-free OptiMEM medium using 300,000 cells per well. In a second assay approach, BEAS-2B human bronchial epithelial cells obtained from ATCC were plated at 100,000 cells per well of a 96-well plate one day prior to the experiment. The BEAS-2B assay was run in complete growth medium (bronchial epithelial basal medium plus bulletkit; Lonza; Basel, Switzerland).
Test compounds were serially diluted 1:2 in DMSO and then diluted 1:50 in medium just before use. Diluted compounds were added to the cells, for a final DMSO concentration of 0.2%, and incubated for 30 m (for the TF-1 assay) or 1 hr (for the BEAS-2B assay) at 37° C. Then, cells were stimulated with human recombinant cytokine at their respective EC90 concentrations, as previously determined for each individual lot. Cells were stimulated with […] (R&D Systems, Minneapolis, Minn.) for 15 m/at 37° C. The TF-1 cell reactions were stopped by the direct addition of 10× lysis buffer (Cell Signaling Technologies, Danvers, Mass.), whereas the BEAS-2B cell incubations were halted by the removal of medium and addition of 1× lysis buffer. The resultant samples were frozen in the plates at −80° C. Compound mediated inhibition of STAT6 phosphorylation was measured in the cell lysates using MesoScale Discovery (MSD) technology (Gaithersburg, Md.). EC50 values were determined as the concentration of compound required for 50% inhibition of STAT phosphorylation relative to that measured for the DMSO control.

[2] = molecular target: isolated recombinant JAK2 kinase domain (Homo sapiens, UniProt O60674); test: JAK enzyme assay (Caliper LabChip), JAK2 kinase domain; conditions: ATP 25 μM, 0.2 nM JAK2, Morrison tight binding model
Sequence of isolated recombinant JAK2 kinase domain (O60674 849-1124 limits assumed): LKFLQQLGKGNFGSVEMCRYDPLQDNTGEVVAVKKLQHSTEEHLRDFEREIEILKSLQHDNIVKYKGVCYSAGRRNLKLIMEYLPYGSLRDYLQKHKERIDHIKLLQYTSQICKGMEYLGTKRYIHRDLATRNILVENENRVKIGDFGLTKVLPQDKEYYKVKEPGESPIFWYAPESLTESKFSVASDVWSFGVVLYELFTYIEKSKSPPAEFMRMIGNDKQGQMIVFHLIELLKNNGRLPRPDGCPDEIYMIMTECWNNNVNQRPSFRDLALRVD
Experimental: JAK Enzyme Assays were Carried Out as Follows:
The activity of the isolated recombinant JAK1 and JAK2 kinase domain was measured by monitoring phosphorylation of a peptide derived from JAK3 ([sequence] fluorescently labeled on the N-terminus with 5-carboxyfluorescein) using the Caliper LabChip® technology (Caliper Life Sciences, Hopkinton, Mass.). […] Reactions were incubated at 22° C. in 384-well polypropylene microtiter plates for 30 minutes and then stopped by addition of 25 μL of an EDTA containing solution (100 mM HEPES buffer (pH 7.2), 0.015% Brij-35, 150 mM EDTA), resulting in a final EDTA concentration of 50 mM. After termination of the kinase reaction, the proportion of phosphorylated product was determined as a fraction of total peptide substrate using the Caliper LabChip® 3000 according to the manufacturer's specifications.

[3] = molecular target: isolated recombinant JAK1 kinase domain (Homo sapiens, UniProt P23458); test: JAK enzyme assay (Caliper LabChip), JAK1 kinase domain; assay type: biochemical; conditions: ATP 25 μM; 1.5 nM JAK1; Morrison tight binding model
Sequence of isolated recombinant JAK1 kinase domain (P23458 875-1153 limits assumed): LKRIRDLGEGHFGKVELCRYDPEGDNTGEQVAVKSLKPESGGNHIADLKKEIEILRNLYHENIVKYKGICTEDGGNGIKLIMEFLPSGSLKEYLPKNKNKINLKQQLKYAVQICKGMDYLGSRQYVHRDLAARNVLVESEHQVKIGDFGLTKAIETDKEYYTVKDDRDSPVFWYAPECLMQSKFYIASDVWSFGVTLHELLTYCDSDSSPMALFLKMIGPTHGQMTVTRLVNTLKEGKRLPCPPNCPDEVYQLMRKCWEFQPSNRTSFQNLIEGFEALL

Structure (SMILES) | IC50 [1] | Ki [2] | Ki [3]
O=C(Nc1c[nH]nc1-c1cc(SCC(F)(F)F)ccc1OC(F)F)c1cnn2cccnc12 [Example 3, N-[3-[2-(difluoromethoxy)-5-(2,2,2-trifluoroethylsulfanyl)phenyl]-1H-pyrazol-4-yl]pyrazolo[1,5-a]pyrimidine-3-carboxamide] | 10 nM | 0.12 nM | 0.16 nM
CC(CO)Sc1ccc(OC(F)F)c(-c2n[nH]cc2NC(=O)c2cnn3cccnc23)c1 (stereo not drawn) [Example 4, N-[3-[2-(difluoromethoxy)-5-(2-hydroxy-1-methyl-ethyl)sulfanyl-phenyl]-1H-pyrazol-4-yl]pyrazolo[1,5-a]pyrimidine-3-carboxamide] | 35 nM | 0.15 nM | 0.23 nM
O=C(Nc1c[nH]nc1-c1cc(SC(F)(F)F)ccc1OC(F)F)c1cnn2cccnc12 [Example 5, N-[3-[2-(difluoromethoxy)-5-(trifluoromethylsulfanyl)phenyl]-1H-pyrazol-4-yl]pyrazolo[1,5-a]pyrimidine-3-carboxamide] | 6 nM | 0.21 nM | 0.5 nM
CN(C1CCN(C(=O)Cn2cc(NC(=O)c3cnn4cccnc34)c(-c3cc(SC4CCOCC4)ccc3OC(F)F)n2)CC1)C1COC1 [Example 6, N-[3-[2-(difluoromethoxy)-5-tetrahydropyran-4-ylsulfanyl-phenyl]-1-[2-[44-[methyl(oxetan-3-yl)amino]-1-piperidyl]-2-oxo-ethyl]pyrazol-4-yl]pyrazolo[1,5-a]pyrimidine-3-carboxamide] | 278 nM | 2.93 nM | 0.97 nM
O=C(Nc1c[nH]nc1-c1cc(SC2CCCC2)ccc1OC(F)F)c1cnn2cccnc12 [Example 7, N-[3-[5-cyclopentylsulfanyl-2-(difluoromethoxy)phenyl]-1H-pyrazol-4-yl]pyrazolo[1,5-a]pyrimidine-3-carboxamide] | 12 nM | 0.37 nM | 0.76 nM
O=C(Nc1c[nH]nc1-c1cc(SC2CCC2)ccc1OC(F)F)c1cnn2cccnc12 [Example 9, N-[3-[5-cyclobutylsulfanyl-2-(difluoromethoxy)phenyl]-1H-pyrazol-4-yl]pyrazolo[1,5-a]pyrimidine-3-carboxamide] | 7 nM | 0.14 nM | 0.23 nM
CC(C)Sc1ccc(OC(F)F)c(-c2nn(CCO)cc2NC(=O)c2cnn3cccnc23)c1 [Example 10, N-[3-[2-(difluoromethoxy)-5-isopropylsulfanyl-phenyl]-1-(2-hydroxyethyl)pyrazol-4-yl]pyrazolo[1,5-a]pyrimidine-3-carboxamide] | 17 nM | 0.24 nM | 0.58 nM
O=C(Nc1cn(Cc2cn(C3CCN(C4COC4)CC3)nn2)nc1-c1cc(SC2COC2)ccc1OC(F)F)c1cnn2cccnc12 [Example 17, N-[3-[2-(difluoromethoxy)-5-(oxetan-3-ylsulfanyl)phenyl]-1-[[1-[1-(oxetan-3-yl)-4-piperidyl]triazol-4-yl]methyl]pyrazol-4-yl]pyrazolo[1,5-a]pyrimidine-3-carboxamide] | 130 nM | 0.57 nM | 0.81 nM
COC(=O)N1CCN(CC2CCN(C(=O)Cn3cc(NC(=O)c4cnn5cccnc45)c(-c4cc(SC(CF)CF)ccc4OC(F)F)n3)CC2)CC1 [Example 18] | 33 nM | 1.3 nM | 0.4 nM
CSc1ccc(OC(F)F)c(-c2nn(CC(C)(C)O)cc2NC(=O)c2cnn3cccnc23)c1 [Example 19, N-[3-[2-(difluoromethoxy)-5-methylsulfanyl-phenyl]-1-(2-hydroxy-2-methyl-propyl)pyrazol-4-yl]pyrazolo[1,5-a]pyrimidine-3-carboxamide] | 15 nM | 0.48 nM | 0.36 nM
O=C(Nc1cn(CCO)nc1-c1cc(SC(CF)CF)ccc1OC(F)F)c1cnn2cccnc12 [Example 22, N-[3-[2-(difluoromethoxy)-5-[2-fluoro-1-(fluoromethyl)ethyl]sulfanyl-phenyl]-1-(2-hydroxyethyl)pyrazol-4-yl]pyrazolo[1,5-a]pyrimidine-3-carboxamide] | 18 nM | 0.19 nM | 0.32 nM
CSc1ccc(OC(F)F)c(-c2nn(CC(=O)N3CCC(O)CC3)cc2NC(=O)c2cnn3cccnc23)c1 [Example 23, N-[3-[2-(difluoromethoxy)-5-methylsulfanyl-phenyl]-1-[2-(4-hydroxy-1-piperidyl)-2-oxo-ethyl]pyrazol-4-yl]pyrazolo[1,5-a]pyrimidine-3-carboxamide] | 47 nM | 0.55 nM | 0.35 nM
O=C(Nc1cn(C2COC2)nc1-c1cc(SC2COC2)ccc1OC(F)F)c1cnn2cccnc12 [Example 24, N-[3-[2-(difluoromethoxy)-5-(oxetan-3-ylsulfanyl)phenyl]-1-(oxetan-3-yl)pyrazol-4-yl]pyrazolo[1,5-a]pyrimidine-3-carboxamide] | 17 nM | 0.22 nM | 0.46 nM
O=C(Nc1cn(CC(=O)N2CC=CCC2)nc1-c1cc(SC2COC2)ccc1OC(F)F)c1cnn2cccnc12 [Example 25, N-[3-[2-(difluoromethoxy)-5-(oxetan-3-ylsulfanyl)phenyl]-1-[2-(3,6-dihydro-2H-pyridin-1-yl)-2-oxo-ethyl]pyrazol-4-yl]pyrazolo[1,5-a]pyrimidine-3-carboxamide] | 14 nM | 0.59 nM | 0.28 nM
CN(C)C(=O)Cn1cc(NC(=O)c2cnn3cccnc23)c(-c2cc(SC3COC3)ccc2OC(F)F)n1 [Example 26, N-[3-[2-(difluoromethoxy)-5-(oxetan-3-ylsulfanyl)phenyl]-1-[2-(dimethylamino)-2-oxo-ethyl]pyrazol-4-yl]pyrazolo[1,5-a]pyrimidine-3-carboxamide] | 34 nM | 0.93 nM | 0.32 nM
CSc1ccc(OC(F)F)c(-c2nn(CC(N)=O)cc2NC(=O)c2cnn3cccnc23)c1 [Example 27, N-[1-(2-amino-2-oxo-ethyl)-3-[2-(difluoromethoxy)-5-methylsulfanyl-phenyl]pyrazol-4-yl]pyrazolo[1,5-a]pyrimidine-3-carboxamide] | 12 nM | 0.1 nM | 0.29 nM
O=C(Nc1cn(CC(=O)N2CCCCC2)nc1-c1cc(SC2COC2)ccc1OC(F)F)c1cnn2cccnc12 [Example 28, N-[3-[2-(difluoromethoxy)-5-(oxetan-3-ylsulfanyl)phenyl]-1-[2-oxo-2-(1-piperidyl)ethyl]pyrazol-4-yl]pyrazolo[1,5-a]pyrimidine-3-carboxamide] | 24 nM | 0.96 nM | 0.41 nM
CSc1ccc(OC(F)F)c(-c2nn(CC(=O)N3CCCCC3)cc2NC(=O)c2cnn3cccnc23)c1 [Example 29] | 14 nM | 0.39 nM | 0.25 nM
O=C(Nc1c[nH]nc1-c1cc(SC(F)F)ccc1OC(F)F)c1cnn2cccnc12 [Example 30, N-[3-[2-(difluoromethoxy)-5-(difluoromethylsulfanyl)phenyl]-1H-pyrazol-4-yl]pyrazolo[1,5-a]pyrimidine-3-carboxamide] | 5 nM | 0.09 nM | 0.16 nM
CNC(=O)Cn1cc(NC(=O)c2cnn3cccnc23)c(-c2cc(SC(F)F)ccc2OC(F)F)n1 [Example 32, N-[3-[2-(difluoromethoxy)-5-(difluoromethylsulfanyl)phenyl]-1-[2-(methylamino)-2-oxo-ethyl]pyrazol-4-yl]pyrazolo[1,5-a]pyrimidine-3-carboxamide] | 14 nM | 0.51 nM | 0.35 nM
CN(C)C(=O)Cn1cc(NC(=O)c2cnn3cccnc23)c(-c2cc(SC(F)F)ccc2OC(F)F)n1 [Example 33, N-[3-[2-(difluoromethoxy)-5-(difluoromethylsulfanyl)phenyl]-1-[2-(dimethylamino)-2-oxo-ethyl]pyrazol-4-yl]pyrazolo[1,5-a]pyrimidine-3-carboxamide] | 10 nM | 0.52 nM | 0.21 nM
